# Tests used:
# [1] = system: TRPM1 and other direct targets of MITF; assay: Expression of MITF targets (microarray, qtPCR); conditions: published microarrays and qtPCR
# melanoma cell lines [2] = assay: PGC1α mRNA by quantitative PCR, MEK inhibitor; conditions: 10 nM, 24 h; all cell lines tested, including BRAF wild-type MeWo
# [3] = system: 12 breast, lung, colon and melanoma cell lines; assay: Public microarray (GSE10086) of PGC1α mRNA; conditions: 10 nM, 24 h; p<0.0001
# melanoma cell lines [4] = assay: phospho-ERK Western blot, MEK inhibitor; type: cell-based; conditions: 10 nM, 24 h; all cell lines tested, including BRAF wild-type MeWo
# Description: Whole cell lysates were prepared in lysis buffer supplemented with protease and phosphatase inhibitors (Roche). Equal amounts of protein were resolved by electrophoresis on gradient gels (Bio-Rad).
# Antibodies used were as follows: MITF (C5 hybridoma); PGC1α (Calbiochem); α-tubulin (clone DM1A, Sigma); GAPDH, phospho-ERK1/2, and ERK1/2 (Cell Signaling Technology). Melanoma biopsies prior and during treatment were sectioned, embedded in paraffin and stained with the phospho-ERK1/2 antibody (Cell Signaling Technology). PLX4720 was used at 1 μM concentration in all assays, whereas control samples were treated with an equal volume of DMSO.
# melanoma cell lines [5] = assay: Gene set enrichment analysis of melanoma cell lines treated with PD0325901
# [6] = system: BRAF-mutant non-melanomas; assay: Gene set enrichment analysis of non-melanomas treated with PD0325901
# melanoma cells (M14) = assay: Cell number, mitochondrial inhibitors combined with PLX4720
# Description: (§1) Melanoma cell were treated for 24 h with PLX4720 then mitochondrial uncoupler for 48 h, prior to estimation of cell number.
# as §1
# Cell number was calculated using the CYQUANT® assay (INVITROGEN™) or crystal violet staining. Lactate measurements were done using the Lactate Assay (BioVision or SIGMA®) per manufacturer's protocols. Indicated cell lines were plated in complete media overnight. Media was changed to serum free-media to avoid interference with the assay for 16 h with either PLX4720 (3 μM) or PLX4032 (1 μM) or vehicle control prior to harvesting cells and measurement of lactate. Results were normalized to cell number. All assays were performed in logarithmically growing cells.
# MEK = conditions: cited from earlier work
# KIT mutated melanoma = conditions: case reports, retrospective and phase II studies; cited from earlier work
# MEK1/2 = conditions: cited from earlier work
# apoptosis = assay: Apoptosis, tigecycline with PLX4720; type: cell-based; conditions: combination with PLX4720
# [7] = PD0325901 treated melanoma cell lines (n = 5), gene set size 15
# [8] = PD0325901 treated melanoma cell lines (n = 5), gene set size 17
# [9] = PD0325901 treated melanoma cell lines (n = 5), gene set size 19
# [10] = PD0325901 treated melanoma cell lines (n = 5), gene set size 20
# [11] = PD0325901 treated melanoma cell lines (n = 5), gene set size 21
# [12] = PD0325901 treated melanoma cell lines (n = 5), gene set size 22
# [13] = PD0325901 treated melanoma cell lines (n = 5), gene set size 24
# [14] = PD0325901 treated melanoma cell lines (n = 5), gene set size 28
# [15] = PD0325901 treated melanoma cell lines (n = 5), gene set size 44
# [16] = PD0325901 treated melanoma cell lines (n = 5), gene set size 49
# [17] = PD0325901 treated melanoma cell lines (n = 5), gene set size 55
# [18] = PD0325901 treated melanoma cell lines (n = 5), gene set size 76
# [19] = PD0325901 treated melanoma cell lines (n = 5), gene set size 107
# [20] = PD0325901, non-melanomas (N=7), gene set size 16
# [21] = PD0325901, non-melanomas (N=7), gene set size 17
# [22] = PD0325901, non-melanomas (N=7), gene set size 19
# [23] = PD0325901, non-melanomas (N=7), gene set size 21
# [24] = PD0325901, non-melanomas (N=7), gene set size 22
# [25] = PD0325901, non-melanomas (N=7), gene set size 27
# [26] = PD0325901, non-melanomas (N=7), gene set size 29
# [27] = PD0325901, non-melanomas (N=7), gene set size 53
# [28] = PD0325901, non-melanomas (N=7), gene set size 55
# [29] = PD0325901, non-melanomas (N=7), gene set size 65
# [30] = PD0325901, non-melanomas (N=7), gene set size 66
# [31] = PD0325901, non-melanomas (N=7), gene set size 73
structure (smiles),measurement,setting,value
O=C(NOC[C@H](O)CO)c1ccc(F)c(F)c1Nc1ccc(I)cc1F [PD0325901],expression of TRPM1 and other direct targets of MITF,[1],induced
same,PGC1α mRNA,melanoma cell lines [2],induction
same,PGC1α mRNA (public microarray),[3],only affected PGC1α mRNA in melanoma cell lines
same,ERK phosphorylation,melanoma cell lines [4],Suppression
same,"ES, SARCOMAS_LEIOMYOSARCOMA_CALP_UP",melanoma cell lines [5]; [7],−0.5939
same,"NES, SARCOMAS_LEIOMYOSARCOMA_CALP_UP",melanoma cell lines [5]; [7],−1.618
same,"ES, TIS7_OVEREXP_DN",melanoma cell lines [5]; [8],−0.6059
same,"NES, TIS7_OVEREXP_DN",melanoma cell lines [5]; [8],−1.666
same,"ES, ATP_SYNTHESIS",melanoma cell lines [5]; [9],−0.5886
same,"ES, FLAGELLAR_ASSEMBLY",melanoma cell lines [5]; [9],−0.5886
same,"ES, TYPE_III_SECRETION_SYSTEM",melanoma cell lines [5]; [9],−0.5886
same,"NES, ATP_SYNTHESIS",melanoma cell lines [5]; [9],−1.651
same,"NES, FLAGELLAR_ASSEMBLY",melanoma cell lines [5]; [9],−1.651
same,"NES, TYPE_III_SECRETION_SYSTEM",melanoma cell lines [5]; [9],−1.651
same,"ES, PHOTOSYNTHESIS",melanoma cell lines [5]; [10],−0.5675
same,"NES, PHOTOSYNTHESIS",melanoma cell lines [5]; [10],−1.596
same,"ES, PHENYLALANINE_METABOLISM",melanoma cell lines [5]; [11],−0.5653
same,"NES, PHENYLALANINE_METABOLISM",melanoma cell lines [5]; [11],−1.644
same,"ES, BRENTANI_CYTOSKELETON",melanoma cell lines [5]; [12],−0.5522
same,"NES, BRENTANI_CYTOSKELETON",melanoma cell lines [5]; [12],−1.762
same,"ES, LIAN_MYELOID_DIFF_GRANULE",melanoma cell lines [5]; [13],−0.6115
same,"NES, LIAN_MYELOID_DIFF_GRANULE",melanoma cell lines [5]; [13],−1.565
same,"ES, TYROSINE_METABOLISM",melanoma cell lines [5]; [14],−0.5609
same,"NES, TYROSINE_METABOLISM",melanoma cell lines [5]; [14],−1.668
same,"ES, HPV31_DN",melanoma cell lines [5]; [15],−0.511
same,"NES, HPV31_DN",melanoma cell lines [5]; [15],−1.584
same,"ES, GLUCONEOGENESIS",melanoma cell lines [5]; [16],−0.455
same,"NES, GLUCONEOGENESIS",melanoma cell lines [5]; [16],−1.548
same,"ES, OXIDATIVE_PHOSPHORYLATION",melanoma cell lines [5]; [17],−0.5314
same,"NES, OXIDATIVE_PHOSPHORYLATION",melanoma cell lines [5]; [17],−1.765
same,"ES, VANASSE_BCL2_TARGETS",melanoma cell lines [5]; [18],−0.3981
same,"NES, VANASSE_BCL2_TARGETS",melanoma cell lines [5]; [18],−1.55
same,"ES, TPA_RESIST_MIDDLE_DN",melanoma cell lines [5]; [19],−0.3946
same,"NES, TPA_RESIST_MIDDLE_DN",melanoma cell lines [5]; [19],−1.586
same,citric acid cycle and oxidative phosphorylation gene sets,melanoma cell lines [5]; melanoma cells treated with PD0325901,trend towards induction
same,enrichment of oxidative phosphorylation or citric acid cycle gene sets,[6]; BRAF-mutant non-melanomas treated with PD0325901,no enrichment
same,"ES, INSULIN_NIH3T3_UP",[6]; [20],−0.6535
same,"NES, INSULIN_NIH3T3_UP",[6]; [20],−1.926
same,"ES, ERK5PATHWAY",[6]; [21],−0.4831
same,"ES, SCHURINGA_STAT5A_DN",[6]; [21],−0.6396
same,"NES, ERK5PATHWAY",[6]; [21],−1.639
same,"NES, SCHURINGA_STAT5A_DN",[6]; [21],−1.67
same,"ES, PASSERINI_OXIDATION",[6]; [22],−0.5358
same,"NES, PASSERINI_OXIDATION",[6]; [22],−1.657
same,"ES, LOTEM_LEUKEMIA_UP",[6]; [23],−0.6144
same,"ES, ST_GA12_PATHWAY",[6]; [23],−0.5512
same,"NES, LOTEM_LEUKEMIA_UP",[6]; [23],−1.935
same,"NES, ST_GA12_PATHWAY",[6]; [23],−1.683
same,"ES, MPRPATHWAY",[6]; [24],−0.5726
same,"NES, MPRPATHWAY",[6]; [24],−1.724
same,"ES, HSA00566_ETHER_LIPID_METABOLISM",[6]; [25],−0.6099
same,"ES, HSA00591_LINOLEIC_ACID_METABOLISM",[6]; [25],−0.6262
same,"NES, HSA00566_ETHER_LIPID_METABOLISM",[6]; [25],−1.836
same,"NES, HSA00591_LINOLEIC_ACID_METABOLISM",[6]; [25],−1.85
same,"ES, HDACPATHWAY",[6]; [26],−0.524
same,"NES, HDACPATHWAY",[6]; [26],−1.695
same,"ES, HDACI_COLON_CLUSTER9",[6]; [27],−0.4566
same,"NES, HDACI_COLON_CLUSTER9",[6]; [27],−1.716
same,"ES, HSA00010_GLYCOLYSIS_AND_GLUCONEOGENESIS",[6]; [28],−0.4307
same,"NES, HSA00010_GLYCOLYSIS_AND_GLUCONEOGENESIS",[6]; [28],−1.651
same,"ES, MUNSHI_MM_UP",[6]; [29],−0.4503
same,"NES, MUNSHI_MM_UP",[6]; [29],−1.811
same,"ES, HSA04370_VEGF_SIGNALING_PATHWAY",[6]; [30],−0.4932
same,"NES, HSA04370_VEGF_SIGNALING_PATHWAY",[6]; [30],−1.946
same,"ES, HSA04664_FC_EPSILON_RI_SIGNALING_PATHWAY",[6]; [31],−0.4516
same,"NES, HSA04664_FC_EPSILON_RI_SIGNALING_PATHWAY",[6]; [31],−1.711
CC[C@@H]1/C=C/C=C/C[C@H](C)[C@H](O)[C@](C)(O)C(=O)[C@H](C)[C@@H](O)[C@H](C)C(=O)[C@H](C)[C@@H](O)[C@H](C)/C=C/C(=O)O[C@H]2[C@@H](C)[C@@H](CC1)O[C@@]1(CC[C@@H](C)[C@@H](C[C@H](C)O)O1)[C@@H]2C [oligomycin A],Combination Index with PLX4720 (additively enhanced the efficacy of PLX4720),"melanoma cells (M14); in vitro, cell number after 72 hrs",0.9
N#CC(C#N)=NNc1cccc(Cl)c1 [CCCP],sensitivity of cells to the agent alone,"melanoma cells (M14); M14 cells, 72 hrs",relatively insensitive
CNC(=O)c1cc(Oc2ccc(NC(=O)Nc3ccc(Cl)c(C(F)(F)F)c3)cc2)ccn1 [sorafenib],clinical responses,KIT mutated melanoma,clinical responses
Cc1cc(C(=O)NOCCO)c(Nc2ccc(I)cc2F)n(C)c1=O [AZD8330],IC50,MEK1/2,7 nM
"CN(C)c1cc(NC(=O)CNC(C)(C)C)c(O)c2c1C[C@H]1C[C@H]3[C@H](N(C)C)C(O)=C(C(N)=O)C(=O)[C@@]3(O)C(O)=C1C2=O [tigecycline, N-[(5aR,6aS,7S,9Z,10aS)-9-[amino(hydroxy)methylidene]-4,7-bis(dimethylamino)-1,10a,12-trihydroxy-8,10,11-trioxo-5,5a,6,6a,7,8,9,10,10a,11-decahydrotetracen-2-yl]-2-(tert-butylamino)acetamide]",apoptosis induced by BRAF inhibitor PLX4720,apoptosis,strongly potentiates apoptosis
Cn1c(=O)c(F)c(Nc2ccc(I)cc2F)c2c(=O)n(C[C@@H](O)CO)cnc21 [TAK-733],IC50,MEK,3.2 nM
